Reference: patent US9815796B2 (Merck Sharp & Dohme Corp., priority 2013, dated 2017)

Each compound was assayed against human PDE2A1 (Homo sapiens (Human), UniProt O00408) (assay: IMAP FP PDE selectivity panel, human PDE2A1). Conditions: Human PDE2, Lab B; read-out: Human PDE2 Ki (nM) - Lab B.
Format: biochemical
Procedure, shortened: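 IMAP FP format: substrate 50 nM FAM-cAMP plus 1000 nM cGMP, enzyme (insect-cell GST-tagged human PDE2A1) at ~20% conversion, 60 min reaction at room temperature. Apparent inhibition constants calculated from parallel/perpendicular fluorescence with KM 10,000 nM.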

Chain of human PDE2A1 (O00408 other isoform, or with tags, fused parts or gaps): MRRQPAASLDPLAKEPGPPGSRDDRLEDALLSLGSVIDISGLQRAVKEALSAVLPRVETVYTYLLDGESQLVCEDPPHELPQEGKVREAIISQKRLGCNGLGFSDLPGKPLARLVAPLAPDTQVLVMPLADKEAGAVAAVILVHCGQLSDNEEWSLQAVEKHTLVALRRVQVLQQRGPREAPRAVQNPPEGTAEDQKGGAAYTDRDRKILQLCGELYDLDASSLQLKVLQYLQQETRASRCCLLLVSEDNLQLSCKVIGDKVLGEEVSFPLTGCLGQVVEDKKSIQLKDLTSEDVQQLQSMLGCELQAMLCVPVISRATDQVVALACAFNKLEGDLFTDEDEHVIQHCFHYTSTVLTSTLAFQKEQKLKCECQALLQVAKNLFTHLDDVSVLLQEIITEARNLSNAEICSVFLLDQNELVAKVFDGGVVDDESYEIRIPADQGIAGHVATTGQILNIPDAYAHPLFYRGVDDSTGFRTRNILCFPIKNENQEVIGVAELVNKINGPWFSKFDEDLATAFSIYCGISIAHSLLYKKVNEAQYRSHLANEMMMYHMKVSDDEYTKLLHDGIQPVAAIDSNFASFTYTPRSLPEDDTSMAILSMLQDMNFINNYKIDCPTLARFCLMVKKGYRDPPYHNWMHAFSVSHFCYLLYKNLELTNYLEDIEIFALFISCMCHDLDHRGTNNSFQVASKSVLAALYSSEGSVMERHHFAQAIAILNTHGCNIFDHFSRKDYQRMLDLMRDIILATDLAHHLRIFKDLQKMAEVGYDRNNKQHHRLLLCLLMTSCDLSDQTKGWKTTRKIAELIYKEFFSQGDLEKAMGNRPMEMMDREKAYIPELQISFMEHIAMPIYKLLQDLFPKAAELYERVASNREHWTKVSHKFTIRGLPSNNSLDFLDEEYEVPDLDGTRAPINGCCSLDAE

How did the Ki turn out when CC(C)(NC(=O)c1cc(=O)[nH]c(-c2ncccn2)n1)c1ccc(OC(F)(F)F)cc1F [Example 574, N-{1-[2-fluoro-4-(trifluoromethoxy)phenyl]-1-methylethyl}-6-oxo-1,6-dihydro-2,2′-bipyrimidine-4-carboxamide] was run?
Its Ki is 831 nM.

Which Ki does the source give for CC(C)(C)[C@@H](NC(=O)c1cc(=O)[nH]c(-c2ncccn2)n1)c1ccc(CC(F)(F)F)cc1 [Example 558, N-[(1R)-2,2-dimethyl-1-[4-(2,2,2-trifluoroethyl)phenyl]propyl}-6-oxo-1,6-dihydro-2,2′-bipyrimidine-4-carboxamide] here?
Its Ki is 35 nM.

How did the Ki turn out when Cc1nc(C(=O)NC2(c3ccc(OC(F)F)cc3)CC2)cc(=O)[nH]1 [Example 628, N-{1-[4-(difluoromethoxy)phenyl]cyclopropyl}-2-methyl-6-oxo-1,6-dihydropyrimidine-4-carboxamide] was run?
The Ki was 87 nM.

With O=C(NC1(c2ccc3c(c2)OC(F)(F)O3)CC1)c1cc(=O)[nH]c(-c2ncccn2)n1 [Example 571, N-[1-(2,2-difluoro-1,3-benzodioxol-5-yl)cyclopropyl]-6-oxo-1,6-dihydro-2,2′-bipyrimidine-4-carboxamide] as the compound, how does the Ki read?
The Ki was 71 nM.

Which Ki does the source give for Cc1nc(C(=O)N[C@@H](c2ccc(C(F)F)c(F)c2)C2(C)CC2)cc(=O)[nH]1 [Example 647, N-[(R)-[4-(difluoromethyl)-3-fluorophenyl](1-methylcyclopropyl)methyl]-2-methyl-6-oxo-1,6-dihydropyrimidine-4-carboxamide] here?
The Ki was 52 nM.

Which Ki does the source give for CC[C@@H](NC(=O)c1cc(=O)[nH]c(C)n1)c1ccc2c(c1)OC(F)(F)O2 [Example 632, N-[(1R)-1-(2,2-difluoro-1,3-benzodioxol-5-yl)propyl]-2-methyl-6-oxo-1,6-dihydropyrimidine-4-carboxamide] here?
Its Ki is 106 nM.

CCc1nc(C(=O)NC(C)(C)c2ccc(C(F)(F)F)cc2Cl)cc(=O)[nH]1 [Example 608, N-{1-[2-chloro-4-(trifluoromethyl)phenyl]-1-methylethyl}-2-ethyl-6-oxo-1,6-dihydropyrimidine-4-carboxamide] was tested. Which Ki did it give?
The Ki was 3.2 nM.

Which Ki does the source give for Cc1nc(C(=O)N[C@H](C)c2ccc3c(c2)OC(F)(F)O3)cc(=O)[nH]1 [Example 606, N-[(1R)-1-(2,2-difluoro-1,3-benzodioxol-5-yl)ethyl]-2-methyl-6-oxo-1,6-dihydropyrimidine-4-carboxamide] here?
Its Ki is 237 nM.

Which Ki does the source give for C[C@](CO)(NC(=O)c1cc(=O)[nH]c(-c2ccccc2)n1)c1ccc(C(F)(F)F)cc1Cl [Example 643, N-{(1S)-1-[2-chloro-4-(trifluoromethyl)phenyl]-2-hydroxy-1-methylethyl}-6-oxo-2-phenyl-1,6-dihydropyrimidine-4-carboxamide] here?
The Ki was 0.5 nM.

CC(C)(C)c1ccc([C@H](NC(=O)c2cc(=O)[nH]c(-c3ncccn3)n2)C2(C)CC2)cc1 [Example 563, N-[(R)-(4-tert-butylphenyl)(1-methylcyclopropyl)methyl]-6-oxo-1,6-dihydro-2,2′-bipyrimidine-4-carboxamide] was tested. Which Ki did it give?
Its Ki is 27 nM.

COc1cc(C(F)(F)F)ccc1C(C)(C)NC(=O)c1cc(=O)[nH]c(C)n1 [Example 594, N-{1-[2-methoxy-4-(trifluoromethyl)phenyl]-1-methylethyl}-2-methyl-6-oxo-1,6-dihydropyrimidine-4-carboxamide] was tested. Which Ki did it give?
The Ki was 120 nM.

For Cc1cnc(-c2nc(C(=O)N[C@H](C)c3ccc(C(F)(F)F)cc3)cc(=O)[nH]2)o1 [Example 676, (R)-2-(5-methyloxazol-2-yl)-6-oxo-N-(1-(4-(trifluoromethyl)phenyl)ethyl)-1,6-dihydropyrimidine-4-carboxamide], which Ki is on record?
The Ki was 478 nM.

How did the Ki turn out when CCC(C)(NC(=O)c1cc(=O)[nH]c(C)n1)c1ccc(C(F)(F)F)cc1F (single isomer, unassigned) [Example 718, (S)- or (R)-N-(2-(2-fluoro-4-(trifluoromethyl)phenyl)butan-2-yl)-2-methyl-6-oxo-1,6-dihydropyrimidine-4-carboxamide] was run?
Its Ki is 39 nM.

C[C@](CO)(NC(=O)c1cc(=O)[nH]c(-c2ccccc2)n1)c1ccc(C(F)(F)F)cc1 [Example 642, N-{(1S)-2-hydroxy-1-methyl-1-[4-(trifluoromethyl)phenyl]ethyl}-6-oxo-2-phenyl-1,6-dihydropyrimidine-4-carboxamide] was tested. Which Ki did it give?
Its Ki is 4.8 nM.

With CCc1nc(C(=O)N[C@](C)(CO)c2ccc(C(F)(F)F)cc2)cc(=O)[nH]1 [Example 638, 2-ethyl-N-{(1S)-2-hydroxy-1-methyl-1-[4-(trifluoromethyl)phenyl]ethyl}-6-oxo-1,6-dihydropyrimidine-4-carboxamide] as the compound, how does the Ki read?
The Ki was 12 nM.

For CC(C)(C)[C@@H](NC(=O)c1cc(=O)[nH]c(-c2ccccc2)n1)c1ccc(CC(F)(F)F)cc1 [Example 537, N-{(1R)-2,2-dimethyl-1-[4-(2,2,2-trifluoroethyl)phenyl]propyl}-6-oxo-2-phenyl-1,6-dihydropyrimidine-4-carboxamide], which Ki is on record?
Its Ki is 2.4 nM.

For CC(C)C(C)(NC(=O)c1cc(=O)[nH]c(-c2ncccn2)n1)c1ccc(S(F)(F)(F)(F)F)cc1 (stereo not drawn) [Example 561, N-{1,2-dimethyl-1-[4-(pentafluoro-λ^6-sulfanyl)phenyl]propyl}-6-oxo-1,6-dihydro-2,2′-bipyrimidine-4-carboxamide], which Ki is on record?
The Ki was 202 nM.

With CC(C)(C)[C@@H](NC(=O)c1cc(=O)[nH]c(-c2ccccc2)n1)c1ccc(C2CC2)c(F)c1 [Example 539, N-[(1R)-1-(4-cyclopropyl-3-fluorophenyl)-2,2-dimethylpropyl]-6-oxo-2-phenyl-1,6-dihydropyrimidine-4-carboxamide] as the compound, how does the Ki read?
Its Ki is 1.2 nM.

CC(NC(=O)c1cc(=O)[nH]c(-c2ccccc2)n1)c1ccc(C2(C(F)(F)F)CC2)cc1 (single isomer, unassigned) [Example 691, (R)- or (S)-6-oxo-2-phenyl-N-(1-(4-(1-(trifluoromethyl)cyclopropyl)phenyl)-ethyl)-1,6-dihydropyrimidine-4-carboxamide] was tested. Which Ki did it give?
Its Ki is 39 nM.

Cc1nc(C(=O)NC2(c3ccc(C(F)F)c(F)c3)CC2)cc(=O)[nH]1 [Example 655, N-{l-[4-(difluoromethyl)-3-fluorophenyl]cyclopropyl}-2-methyl-6-oxo-1,6-dihydropyrimidine-4-carboxamide] was tested. Which Ki did it give?
Its Ki is 64 nM.

CC1([C@@H](NC(=O)c2cc(=O)[nH]c(-c3ccccc3)n2)c2ccc(S(F)(F)(F)(F)F)cc2)CC1 [Example 549, N-{(R)-(1-methylcyclopropyl)[4-(pentafluoro-λ^6-sulfanyl)phenyl]methyl}-6-oxo-2-phenyl-1,6-dihydropyrimidine-4-carboxamide] was tested. Which Ki did it give?
Its Ki is 4.5 nM.

With Cc1nc(C(=O)N[C@@H](c2ccc3c(c2)OC(F)(F)O3)C2(C)CC2)cc(=O)[nH]1 [Example 634, N-[(R)-(2,2-difluoro-1,3-benzodioxol-5-yl)(1-methylcyclopropyl)methyl]-2-methyl-6-oxo-1,6-dihydropyrimide-4-carboxamide] as the compound, how does the Ki read?
The Ki was 29 nM.

Which Ki does the source give for Cc1nc(C(=O)NC(CO)(CO)c2ccc(C(F)(F)F)cc2)cc(=O)[nH]1 [Example 605, N-{2-hydroxy-1-(hydroxymethyl)-1-[4-(trifluoromethyl)phenyl]ethyl}-2-methyl-6-oxo-1,6-dihydropyrimidine-4-carboxamide] here?
Its Ki is 102 nM.

How did the Ki turn out when CC(C)(NC(=O)c1cc(=O)[nH]c(-c2ncccn2)n1)c1ccc(C(F)(F)F)cc1Cl [Example 568, N-{1-[2-chloro-4-(trifluoromethyl)phenyl]-1-methylethyl}-6-oxo-1,6-dihydro-2,2′-bipyrimidine-4-carboxamide] was run?
Its Ki is 96 nM.

Which Ki does the source give for Cc1nc(C(=O)N[C@@H](c2ccc(C(F)F)cc2)C2(C)CC2)cc(=O)[nH]1 [Example 645, N-[(R)-[4-(difluoromethyl)phenyl](1-methylcyclopropyl)methyl]-2-methyl-6-oxo-1,6-dihydropyrimidine-4-carboxamide] here?
The Ki was 25 nM.

Which Ki does the source give for CC(C)(C)c1ccc(C2(NC(=O)c3cc(=O)[nH]c(-c4ncccn4)n3)CC2)cc1 [Example 575, N-[1-(4-tert-butylphenyl)cyclopropyl]-6-oxo-1,6-dihydro-2,2′-bipyrimidine-4-carboxamide] here?
The Ki was 65 nM.

With O=C(NC1(c2ccc(S(F)(F)(F)(F)F)cc2)CC1)c1cc(=O)[nH]c(-c2ncccn2)n1 [Example 570, 6-oxo-N-{1-[4-(pentafluoro-λ^6-sulfanyl)phenyl]cyclopropyl}-1,6-dihydro-2,2′-bipyrimidine-4-carboxamide] as the compound, how does the Ki read?
The Ki was 21 nM.

For CC(NC(=O)c1cc(=O)[nH]c(C2CC2)n1)c1ccc(C(C)(C)C(F)(F)F)cc1 (single isomer, unassigned) [Example 696], which Ki is on record?
The Ki was over 2960 nM.

How did the Ki turn out when Cc1nc(C(=O)NC(c2ccc(S(F)(F)(F)(F)F)cc2F)C(C)(C)C)cc(=O)[nH]1 (single isomer, unassigned) [Example 720, (R)- or (S)-N-(1-(2-fluoro-4-(pentafluoro-λ^6-sulfanyl)phenyl)-2,2-dimethylpropyl)-2-methyl-6-oxo-1,6-dihydropyrimidine-4-carboxamide] was run?
The Ki was 2.6 nM.

How did the Ki turn out when Cc1nc(C(=O)NC(C)c2ccc(C3(C(F)(F)F)CC3)cc2)cc(=O)[nH]1 (single isomer, unassigned) [Example 687, (R)- or (S)-2-methyl-6-oxo-N-(1-(4-(1-(trifluoromethyl)cyclopropyl)phenyl)-ethyl)-1,6-dihydropyrimidine-4-carboxamide] was run?
The Ki was 108 nM.

For CC1(c2ccc(C(NC(=O)c3cc(=O)[nH]c(-c4ccccc4)n3)C(C)(C)C)cc2F)CC1 (single isomer, unassigned) [Example 714, (S)- or (R)-N-(1-(3-fluoro-4-(1-methylcyclopropyl)phenyl)-2,2-dimethylpropyl)-6-oxo-2-phenyl-1,6-dihydropyrimidine-4-carboxamide], which Ki is on record?
The Ki was about 1820 nM.

Which Ki does the source give for Cc1nc(C(=O)N[C@@H](c2ccc(C(F)F)cc2F)C(C)(C)C)cc(=O)[nH]1 [Example 661, N-{(1R)-1-[4-(difluoromethyl)-2-fluorophenyl]-2,2-dimethylpropyl}-2-methyl-6-oxo-1,6-dihydropyrimidine-4-carboxamide] here?
Its Ki is 6.6 nM.

With CC[C@@H](NC(=O)c1cc(=O)[nH]c(C)n1)c1ccc(C(F)F)cc1 [Example 652, N-{(1R)-1-[4-(difluoromethyl)phenyl]propyl}-2-methyl-6-oxo-1,6-dihydropyrimidine-4-carboxamide] as the compound, how does the Ki read?
The Ki was 138 nM.
